According to ChEMBL document CHEMBL5665443, “Enzyme Inhibitor Single Concentration assay results for EUbOPEN Chemogenomics Library” (2024):

Experiments:
[1] = biological target: Methyl-CpG-binding domain protein 4 (Homo sapiens) (UniProt O95243); conditions: Hit No;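 note: MBD4 activity read as fluorescence at 594 nm from cleavage and release of a quenched duplex DNA oligonucleotide, with APE1 coupled to incise the strand and raise turnover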
Description: Inhibition of MBD4 by quantifying inhibition of MBD4-mediated cleavage and dissociation of quenched duplex DNA oligonucleotides, measured as fluorescence at 594 nm. To generate a functional strand incision and increase turn-over this assay is coupled to APE1.

[2] = biological target: T1, Adenine DNA glycosylase (Homo sapiens) (UniProt Q9UIF7);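 note: human MUTYH activity read as 594 nm fluorescence from cleavage and release of a quenched DNA duplex, coupled with APE1 for strand incision, lower signal meaning inhibition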
T1 sequence (whole entry): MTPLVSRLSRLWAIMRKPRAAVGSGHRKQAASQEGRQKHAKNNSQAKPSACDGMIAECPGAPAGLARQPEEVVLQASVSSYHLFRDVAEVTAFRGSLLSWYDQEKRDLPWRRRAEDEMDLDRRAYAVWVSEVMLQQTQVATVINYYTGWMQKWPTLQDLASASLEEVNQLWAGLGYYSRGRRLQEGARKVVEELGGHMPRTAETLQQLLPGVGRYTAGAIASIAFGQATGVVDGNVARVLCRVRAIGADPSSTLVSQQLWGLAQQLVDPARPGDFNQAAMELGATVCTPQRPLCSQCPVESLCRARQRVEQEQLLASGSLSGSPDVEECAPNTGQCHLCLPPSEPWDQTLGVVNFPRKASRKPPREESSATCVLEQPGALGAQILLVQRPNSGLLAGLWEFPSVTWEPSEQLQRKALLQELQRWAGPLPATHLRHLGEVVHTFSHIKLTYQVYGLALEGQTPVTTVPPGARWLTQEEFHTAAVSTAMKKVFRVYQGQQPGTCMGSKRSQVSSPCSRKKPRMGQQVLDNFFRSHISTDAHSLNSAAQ
Description: Inhibition of MUTYH by quantifying inhibition of MUTYH-mediated cleavage and dissociation of quenched duplex DNA oligonucleotides, measured as fluorescence at 594 nm. To generate a functional strand incision and increase turn-over this assay is coupled to APE1.

[3] = biological target: Endonuclease 8-like 1 (Homo sapiens) (UniProt Q96FI4); conditions: Hit No;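 note: fluorescence at 594 nm from quenched duplex DNA oligonucleotides released by NEIL1 cleavage and strand separation, reported as reduction of this enzyme activity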
Description: Inhibition of NEIL1 by quantifying inhibition of NEIL1-mediated cleavage and dissociation of quenched duplex DNA oligonucleotides, measured as fluorescence at 594 nm.

[4] = biological target: T2, Endonuclease 8-like 2 (Homo sapiens) (UniProt Q969S2);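 note: fluorescence at 594 nm reports NEIL2 cutting and release of a quenched double-stranded DNA oligo substrate, reduced signal read as inhibition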
T2 sequence (whole entry): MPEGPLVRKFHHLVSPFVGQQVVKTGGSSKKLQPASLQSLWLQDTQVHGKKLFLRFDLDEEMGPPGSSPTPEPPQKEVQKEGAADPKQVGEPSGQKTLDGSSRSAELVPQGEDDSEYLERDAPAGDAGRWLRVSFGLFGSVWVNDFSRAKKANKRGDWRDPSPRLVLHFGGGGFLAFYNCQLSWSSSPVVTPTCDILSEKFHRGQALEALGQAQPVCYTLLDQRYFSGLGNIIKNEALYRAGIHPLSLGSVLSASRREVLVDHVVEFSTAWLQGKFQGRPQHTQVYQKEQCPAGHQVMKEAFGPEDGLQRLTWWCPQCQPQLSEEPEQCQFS
Description: Inhibition of NEIL2 by quantifying inhibition of NEIL2-mediated cleavage and dissociation of quenched duplex DNA oligonucleotides, measured as fluorescence at 594 nm.

[5] = biological target: T3, Endonuclease III-like protein 1 (Homo sapiens) (UniProt P78549); conditions: Hit No;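 note: enzyme assay tracking NTHL1 cutting and release of a quenched double-stranded DNA oligo substrate, read as fluorescence at 594 nm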
T3 sequence (whole entry): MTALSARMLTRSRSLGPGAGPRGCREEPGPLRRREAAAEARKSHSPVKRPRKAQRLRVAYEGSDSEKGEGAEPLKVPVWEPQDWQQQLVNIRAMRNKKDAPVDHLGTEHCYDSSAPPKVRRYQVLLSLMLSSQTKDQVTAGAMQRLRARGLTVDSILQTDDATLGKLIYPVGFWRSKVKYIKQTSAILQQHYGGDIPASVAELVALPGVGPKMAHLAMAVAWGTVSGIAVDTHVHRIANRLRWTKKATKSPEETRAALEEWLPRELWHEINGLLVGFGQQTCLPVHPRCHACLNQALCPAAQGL
Description: Inhibition of NTHL1 by quantifying inhibition of NTHL1-mediated cleavage and dissociation of quenched duplex DNA oligonucleotides, measured as fluorescence at 594 nm.

[6] = biological target: N-glycosylase/DNA lyase (Homo sapiens) (UniProt O15527);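 note: OGG1 cleavage of a quenched duplex DNA oligonucleotide, coupled to APE1 for strand incision, read as fluorescence at 594 nm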
Description: Inhibition of OGG1 by quantifying inhibition of OGG1-mediated cleavage and dissociation of quenched duplex DNA oligonucleotides, measured as fluorescence at 594 nm. To generate a functional strand incision and increase turn-over this assay is coupled to APE1.

[7] = biological target: T4, Single-strand selective monofunctional uracil DNA glycosylase (Homo sapiens) (UniProt Q53HV7); conditions: Hit No;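 note: enzymatic SMUG1 assay coupled with APE1, reading fluorescence at 594 nm released when a quenched double-stranded DNA oligonucleotide substrate is cleaved and separated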
T4 sequence (whole entry): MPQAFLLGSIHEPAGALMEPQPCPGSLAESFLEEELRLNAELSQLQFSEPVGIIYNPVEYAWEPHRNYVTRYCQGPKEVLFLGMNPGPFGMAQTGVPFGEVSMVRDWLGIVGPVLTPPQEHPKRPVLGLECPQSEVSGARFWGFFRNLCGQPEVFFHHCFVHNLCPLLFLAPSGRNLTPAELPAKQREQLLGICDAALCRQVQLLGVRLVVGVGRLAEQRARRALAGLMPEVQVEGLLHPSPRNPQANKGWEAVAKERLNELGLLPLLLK
Description: Inhibition of SMUG1 by quantifying inhibition of SMUG1-mediated cleavage and dissociation of quenched duplex DNA oligonucleotides, measured as fluorescence at 594 nm. To generate a functional strand incision and increase turn-over this assay is coupled to APE1.

[8] = biological target: G/T mismatch-specific thymine DNA glycosylase (Homo sapiens) (UniProt Q13569); conditions: Hit No;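 note: human TDG cleavage of quenched duplex DNA oligonucleotides coupled to APE1, strand release read as fluorescence at 594 nm, inhibition of TDG activity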
Description: Inhibition of TDG by quantifying inhibition of TDG-mediated cleavage and dissociation of quenched duplex DNA oligonucleotides, measured as fluorescence at 594 nm. To generate a functional strand incision and increase turn-over this assay is coupled to APE1.

[9] = biological target: Uracil-DNA glycosylase (Homo sapiens) (UniProt P13051); conditions: Hit No;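 note: UNG excision on a quenched double-stranded DNA oligo probe, with APE1 added for strand incision and turnover, read as fluorescence at 594 nm as strands separate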
Description: Inhibition of UNG by quantifying inhibition of UNG-mediated cleavage and dissociation of quenched duplex DNA oligonucleotides, measured as fluorescence at 594 nm. To generate a functional strand incision and increase turn-over this assay is coupled to APE1.

[10] = Compound Concentration 1.0 uM, Hit No
[11] = Compound Concentration 10.0 uM, Hit No
[12] = Compound Concentration 1.0 uM, Hit Yes

Sequence of N-glycosylase/DNA lyase (Homo sapiens) (O15527 whole entry): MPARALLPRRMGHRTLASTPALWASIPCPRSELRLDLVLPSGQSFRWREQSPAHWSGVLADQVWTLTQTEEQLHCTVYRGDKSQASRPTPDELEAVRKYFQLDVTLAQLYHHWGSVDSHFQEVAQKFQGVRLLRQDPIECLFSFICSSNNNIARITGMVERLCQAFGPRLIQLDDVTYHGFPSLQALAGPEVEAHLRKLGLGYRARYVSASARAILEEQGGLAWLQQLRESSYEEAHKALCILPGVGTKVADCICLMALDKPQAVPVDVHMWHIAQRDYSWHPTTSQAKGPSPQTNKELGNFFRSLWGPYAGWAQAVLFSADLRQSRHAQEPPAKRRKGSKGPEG
Sequence of Endonuclease 8-like 1 (Homo sapiens) (Q96FI4 whole entry): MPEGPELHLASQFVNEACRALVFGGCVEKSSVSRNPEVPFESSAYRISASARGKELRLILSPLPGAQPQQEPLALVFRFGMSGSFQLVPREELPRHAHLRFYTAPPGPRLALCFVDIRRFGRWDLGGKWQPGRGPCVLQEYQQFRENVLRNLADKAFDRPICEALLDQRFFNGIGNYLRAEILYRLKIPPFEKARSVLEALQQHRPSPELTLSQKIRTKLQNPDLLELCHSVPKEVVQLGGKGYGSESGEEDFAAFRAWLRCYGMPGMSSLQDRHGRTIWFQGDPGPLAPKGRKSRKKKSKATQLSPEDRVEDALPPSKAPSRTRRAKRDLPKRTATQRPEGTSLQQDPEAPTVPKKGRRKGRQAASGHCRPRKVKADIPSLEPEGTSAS
Sequence of Methyl-CpG-binding domain protein 4 (Homo sapiens) (O95243 whole entry, the tested form may be a part): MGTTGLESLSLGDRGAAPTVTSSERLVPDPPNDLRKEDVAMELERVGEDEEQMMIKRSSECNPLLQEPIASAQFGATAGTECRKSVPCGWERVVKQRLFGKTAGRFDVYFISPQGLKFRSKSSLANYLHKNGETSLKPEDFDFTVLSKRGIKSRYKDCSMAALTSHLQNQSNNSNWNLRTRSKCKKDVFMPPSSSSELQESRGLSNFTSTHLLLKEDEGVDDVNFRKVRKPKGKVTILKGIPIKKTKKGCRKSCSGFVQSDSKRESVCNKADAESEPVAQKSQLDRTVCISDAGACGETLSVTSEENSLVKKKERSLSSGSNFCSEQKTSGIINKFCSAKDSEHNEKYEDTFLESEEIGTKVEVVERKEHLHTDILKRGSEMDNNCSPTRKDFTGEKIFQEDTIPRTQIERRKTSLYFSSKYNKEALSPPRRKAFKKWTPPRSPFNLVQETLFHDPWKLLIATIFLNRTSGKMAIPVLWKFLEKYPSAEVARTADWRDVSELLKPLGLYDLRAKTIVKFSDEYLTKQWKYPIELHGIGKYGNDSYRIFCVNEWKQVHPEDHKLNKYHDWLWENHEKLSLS
Sequence of Uracil-DNA glycosylase (Homo sapiens) (P13051 whole entry): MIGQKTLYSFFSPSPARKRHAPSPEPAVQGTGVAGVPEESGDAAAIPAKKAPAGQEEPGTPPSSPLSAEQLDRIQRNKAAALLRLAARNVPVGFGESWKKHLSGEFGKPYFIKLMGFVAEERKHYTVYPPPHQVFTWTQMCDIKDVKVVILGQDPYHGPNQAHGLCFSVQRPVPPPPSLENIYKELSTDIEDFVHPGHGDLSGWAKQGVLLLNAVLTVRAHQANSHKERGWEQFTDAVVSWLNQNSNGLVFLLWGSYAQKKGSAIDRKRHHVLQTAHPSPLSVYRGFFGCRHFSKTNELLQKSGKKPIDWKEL
Sequence of G/T mismatch-specific thymine DNA glycosylase (Homo sapiens) (Q13569 whole entry): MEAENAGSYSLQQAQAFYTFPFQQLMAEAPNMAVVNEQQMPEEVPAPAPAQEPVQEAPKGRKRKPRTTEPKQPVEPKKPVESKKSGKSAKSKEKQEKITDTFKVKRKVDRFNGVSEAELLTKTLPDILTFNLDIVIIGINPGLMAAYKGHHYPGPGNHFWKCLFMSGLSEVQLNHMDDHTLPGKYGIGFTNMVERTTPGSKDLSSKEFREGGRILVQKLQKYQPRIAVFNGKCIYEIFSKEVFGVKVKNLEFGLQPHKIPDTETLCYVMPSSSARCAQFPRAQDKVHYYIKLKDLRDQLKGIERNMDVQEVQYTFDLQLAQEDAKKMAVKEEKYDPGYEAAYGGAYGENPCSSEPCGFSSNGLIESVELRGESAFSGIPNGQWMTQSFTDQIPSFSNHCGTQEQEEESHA

Structure (SMILES)	inhibition ([1]; Compound Concentration 10.0 uM) [%]	inhibition [2, 10] [%]	inhibition [2, 11] [%]	inhibition ([3]; Compound Concentration 1.0 uM) [%]	inhibition ([3]; Compound Concentration 10.0 uM) [%]	inhibition [4, 11] [%]	inhibition ([5]; Compound Concentration 1.0 uM) [%]	inhibition ([5]; Compound Concentration 10.0 uM) [%]	inhibition [6, 11] [%]	inhibition ([7]; Compound Concentration 1.0 uM) [%]	inhibition ([7]; Compound Concentration 10.0 uM) [%]	inhibition ([8]; Compound Concentration 1.0 uM) [%]	inhibition ([8]; Compound Concentration 10.0 uM) [%]	inhibition ([9]; Compound Concentration 1.0 uM) [%]	inhibition ([9]; Compound Concentration 10.0 uM) [%]	inhibition ([1]; Compound Concentration 1.0 uM) [%]	inhibition [2, 12] [%]	inhibition [4, 12] [%]	inhibition [6, 10] [%]	inhibition ([6]; Compound Concentration 10.0 uM, Hit Yes) [%]
CC1=C(C#N)C(c2ccc3c(c2)c(NC(=O)c2ccccc2C)nn3C)C(C#N)=C(C)N1	65.1	-2.97	15.1	1.19	-2.11	0.0213	2.88	-3.26	7.85	16.1	24.1	29.4	58.9	1.91	6.97					
CNC(=O)c1cc(C(=O)N[C@H]2[C@@H]3COC[C@@H]32)cc2c1O[C@@H](CF)[C@@H]2c1ccccc1	54.8		-6.61		6.68	8.44		-3.92	6.72		8.28		52.5		4.27					
CNCc1ccccc1-c1csc([C@H](C)Nc2nc(C)nc3cc(OC)c(OC)cc23)c1				-4.23			2.66			19.4		97.8		6.69		58.7	36.2	26.3	6.33	
CC(C)S(=O)(=O)c1ccc2nccc(Nc3ccc4scnc4c3)c2c1	9.41		18.3		-7.92	1.58		9.85	12		32.3		49.5		8					
N#CC1(c2ccccn2)CCN(Cc2cc(C(=O)N3CCCC3)c(=O)n3ccccc23)CC1	68.6		-9.61		-0.745	4.87		2	13.7		16.3		39.8		2.35					
O=C(Nc1cccnc1)c1cc(-c2ccnc(F)c2)ccc1OCc1ccccc1	20.7		3.77		-5.94	-3.53		4.27	6.84		25.3		52.5		2.47					
CCOC(=O)Nc1ccc2c(c1)N(C(=O)CN(CC)CC)c1ccccc1CC2	65.5		-4.04		-8.02	-9.67		4.63	-1.34		15.8		97.9		-1.75					
CCc1ccc(N(CC(C)C)S(=O)(=O)c2ccc(OCC3CCOCC3)c(CO)c2)cc1	69.4		7		-7.41	-1.25		-1.95	9.77		18.3		98.5		5.13					
CN(C(=O)c1cnn2cccnc12)c1cc2c(cc1N1CCOCC1)C(=O)N(C[C@@H](F)C(C)(C)O)C2	23.6		2.33		6.13	-1.57		-9.94	-1.31		9.25		39.8		0.621					
CCc1ccccc1C(=O)Nc1n[nH]c2c(C)c(F)c(C3C(C#N)=C(C)N(C)C(C)=C3C#N)cc12	44.9	6.2	2.35	0.0055	-6.65	5.63	13.3	-1.95	11.1	13.1	29.9	36.9	43.7	1.06	9.1	55				
Cc1c(N2CCCC2)nc2ccc(Br)cc2c1C(=O)NC[C@H](CCC(=O)O)c1ccccc1Cl	69.2		22		3.19	-0.744		-1.95	31.5		12.3		54		5.08					
CC(C)c1onc(-c2c(Cl)cccc2Cl)c1COc1ccc(/C=C/c2cccc(C(=O)O)c2)c(Cl)c1	58.8		0.66		-5.29	-6.36		12.5			19.5		100		4.8					103
Cc1cc(-n2nc(Cc3cc(F)cc(C(F)(F)F)c3)nc2C)ccc1C(N)=O	59.6		0.715		-6.95	-0.234		7.26	-5.77		18.8		97.3		2.38					
CN1CCN(C(=O)c2ccc3cc2OCCOCCNc2ccn4ncc-3c4n2)CC1	17.6		-5.82		1.85	-5.69		-5.49	2.08		13.6		38.5		1.81					
O=C(O)c1ccc(C(=O)N[C@@H](c2ccc(OC(F)(F)F)c(F)c2)c2ncccc2F)nc1	11.1		7.76		5.2	13.9		22.9	-2.45		-6.46		8.79		-9.18					
